Experiment [1] relates to glucocorticoid-sensitive subclone (CEM-S2). Briefly: MTS cell survival assay, CEM-S2. The following applies: 72 hours. The experiment is classed as cell-based, human. As for the experimental part: (§1) In FIG. 5A, the polyclonal parental cell line (CCRF-CEM), the single cell-derived glucocorticoid-resistant subclone (CEM-R8) and the single cell-derived glucocorticoid-sensitive subclone (CEM-S2) were cultured for 72 hours in the presence of vehicle (ETOH) or dexamethasone at the concentrations indicated and cell viability was assessed by the MTS assay as described in Methods. In FIG. 5B, the glucocorticoid-resistant subclone (CEM-R8) and the glucocorticoid-sensitive subclone (CEM-S2) were cultured for 72 hours in the presence of hydrocortisone (HC) (10 μM HC for the CEM-R8 cells and 1 μM HC for the CEM-S2 cells), 10 μM forskolin (Fsk), 10 μM rolipram (Rol), or combinations of these agents as indicated, and cell viability was assessed by the MTS assay as described in Methods. FIG. 5C: The glucocorticoid-resistant subclone (CEM-R8) and the glucocorticoid-sensitive subclone (CEM-S2) were cultured for 72 hours in the presence of varying amounts of dibutyryl cAMP (db-cAMP) in the absence (−HC) or presence (+HC) of 1 μM hydrocortisone as indicated, and cell viability was assessed by the MTS assay as described in Methods. The data shown were normalized to the vehicle control. Results represent the mean±SD of triplicate determinations.
(§2) CCRF-CEM cells were obtained from ATCC^27. Leukemic or normal mononuclear cells were obtained by centrifugation over Histopaque 1077 (Sigma Chemical Company, St. Louis, Mo.). For purification of T cells, whole mononuclear cells from normal subjects were incubated with magnetic beads coated with appropriate antibodies, then positively purified using a magnet (Miltenyi). […]
(§3) Hoechst 33342 and DiOC6(3) apoptosis assays were performed as previously described^22,28. […] The absorbance (O.D.) of the formazan product was determined at 492 nm using a plate reader (Titertek Multiscan Plus, Labsystems). Percent cell viability was calculated as follows: (O.D. control sample−O.D. blank)/(O.D. test sample−O.D. blank)×100. […]

Experiment [2] has as its system glucocorticoid-resistant subclone (CEM-R8). Nature of the experiment: MTS cell survival assay, CEM-R8. It counts as cell-based, human. The conditions noted are these: dexamethasone-resistant CCRF-CEM cells; dbcAMP dose response, 72 hours. As for the experimental part:
as §1, with “The data shown were normalized to the vehicle control. Results represent the mean±SD of triplicate determinations.” left out
(§4) Hoechst 33342 and DiOC6(3) apoptosis assays were performed as previously described^22,28. […] The absorbance (O.D.) of the formazan product was determined at 492 nm using a plate reader (Titertek Multiscan Plus, Labsystems). […]
(Tetrazolium dyes change colour on reduction, which living cells bring about.)

For experiment [3], the system named is GRE luciferase constructs transiently transfected into B-CLL cells. Nature of the experiment: GRE luciferase transactivation in B-CLL cells. It counts as cell-based, human. The conditions noted are these: 1 mM Rp-8Br-cAMPS; 8 B-CLL samples; p<0.02. As for the experimental part:
B-CLL cells (FIG. 3A) or CCRF-CEM cells (FIG. 3B) were transiently transfected with a luciferase construct in which expression is regulated by GRE elements, followed by culture in 10 μM rolipram (R), 40 μM forskolin (Fsk), 1 μM hydrocortisone (HC), 1 mM Rp-8Br-cAMPS (Rp-8Br) or combinations of these agents. 12 hours after addition of the drugs, the relative luminescence of the samples was determined. The data shown are the mean of 8 experiments for B-CLL and two experiments for CCRF-CEM cells. The single asterisk denote a significant difference by paired student's t test between HC alone and either R/HC (FIG. 3A) or F/HC (FIG. 3B) (p<0.02). The double asterisk denotes a significant difference between Rp-8Br-cAMPS/HC and HC alone (p<0.02).
An MMTV GRE luciferase construct, originally created by Dr. R. Evans, was a gift from Dr. Remco Spanjaard (Dept. of Otolaryngology, Boston Medical Center)^29. 100 million B CLL cells in 200 μl of PBS were added to 500 μl of Nucleofector Solution D containing 30 μg of endotoxin-free (Qiagen) MMTV luciferase constructs. 100 μl was used per transfection using a Nucleofector electroporation instrument (Amaxa Biosystems, Koeln, Germany) using program U16. […] Up to six such aliquots of transfected cells were diluted in media and pooled, prior to distribution of 8 million cells/well in 48 well plates. Two hours after transfection, drugs, cytokines or vehicle alone were added to the transfected cells. 14 hours after transfection, samples were processed using a luciferase assay kit (Promega). Triplicate samples were analyzed with an MGM Instruments Optocomp I luminometer (Hamden, Conn.). Analysis of cell viability (trypan blue exclusion) and total protein (Pierce) verified that equivalent numbers of viable B-CLL cells were analyzed. 100 million CCRF-CEM cells were similarly transfected, cultured and analyzed except that Nucleofector program O17 was utilized. […] Data were analyzed using a two-sided paired t test for means.

Experiment [4] relates to B-CLL cells. Nature of the experiment: Hoechst 33342 apoptosis assay, B-CLL cells. The conditions noted are these: 1 mM Rp-8Br-cAMPS + 1 μM hydrocortisone, 48 hours; six B-CLL patients. It counts as cell-based, human.
The next experiment has as its target PDE1 enzymes. The conditions noted are these: cited from earlier work.
Experiment [5] has as its system B-CLL cells. Nature of the experiment: Hoechst 33342 apoptosis assay, B-CLL cells. The experiment is classed as cell-based, human. The conditions noted are these: for augmentation of hydrocortisone-induced apoptosis: 10 μM PDE inhibitor + 1 μM hydrocortisone; for apoptosis by Hoechst 33342 analysis: 48 hrs culture, Roli 10 μM, HC 1 μM. As for the experimental part: FIGS. 1A-D show the effects of the cyclic nucleotide phosphodiesterase inhibitors rolipram, RO20-1724 and cilostamide on hydrocortisone and dexamethasone-induced apoptosis in B-CLL. In FIG. 1A, leukemic cells from 11 B-CLL patients were assessed for apoptosis by […] analysis after 48 hrs culture in media alone (No treatment), 10 μM rolipram (Roli), 1 μM hydrocortisone (HC) or a combination of the two drugs (Roli+HC). In FIGS. 1B and 1C, leukemic cells from five patients with B-CLL were cultured in media alone or with a dose titration of hydrocortisone (1B: solid line) or dexamethasone (1C: solid line), followed by assessment for apoptosis by Hoechst 33342 FACS analysis at 48 hours. Using the same experimental conditions, the effect of addition of 10 μM rolipram (thick dashed line) to the glucocorticoids was also assessed. In FIG. 1D, the apoptotic effects of the PDE4 inhibitor RO20-1724 (RO20) (10 μM) or the PDE3 inhibitor cilostamide (Cilost) (10 μM) were assessed on B-CLL cells when combined with 1 μM hydrocortisone. Data represent the mean±SEM of triplicate samples.
Blood samples were obtained by IRB-approved consent from flow cytometry-confirmed B-CLL patients that were either untreated or for whom at least one month had elapsed since chemotherapy. Patients with active infections or other serious medical conditions were not included in this study.
CCRF-CEM cells were obtained from ATCC^27. Leukemic or normal mononuclear cells were obtained by centrifugation over Histopaque 1077 (Sigma Chemical Company, St. Louis, Mo.). For purification of T cells, whole mononuclear cells from normal subjects were incubated with magnetic beads coated with appropriate antibodies, then positively purified using a magnet (Miltenyi). Cells were cultured in RPMI 1640 media (Biowhittaker, Walkersville, Md.) supplemented with 10% fetal calf serum, 50 μMol/L 2-mercaptoethanol, 2 mMol/L L-glutamine, 10 mM Hepes pH 7.4, […] (Sigma Chemical Company, St. Louis, Mo.). For isolation of glucocorticoid resistant clones, parental CCRF-CEM cells were treated with 1 μM dexamethasone for 10 days, and surviving cells diluted to ≦one cell/well in a 96-well flat-bottom tissue culture plate, grown for three weeks in media supplemented with 20% fetal calf serum and 1% insulin-transferrin-selenium (GIBCO), and then transferred to regular growth medium. […] For isolation of glucocorticoid-sensitive clones, the same procedure was used, except that treatment with dexamethasone was omitted. A glucocorticoid-sensitive subclone (CEM-S2) was inhibited in its survival by dexamethasone with an IC50=0.007 μM.
Hoechst 33342 and DiOC6(3) apoptosis assays were performed as previously described^22,28. For CCRF-CEM cell survival assays, cells were plated at a density of 3×10^4/well in 96-well flat-bottom plates in the presence of test reagents or vehicle in 0.1 mL media. Following incubation for 72 hrs, 20 μl of a 20:1 MTS (2 mg/mL)/PMS (0.92 mg/ml) solution was added to each well, and the plates incubated for 2 hrs at 37°. The absorbance (O.D.) of the formazan product was determined at 492 nm using a plate reader (Titertek Multiscan Plus, Labsystems). Percent cell viability was calculated as follows: (O.D. control sample−O.D. blank)/(O.D. test sample−O.D. blank)×100. All assays were performed in triplicate.

The subject of another experiment is CCRF-CEM cells. Briefly: MTS cell survival assay, CCRF-CEM cells. It counts as cell-based, human. The conditions noted are these: 72 hours. On the procedure: as §1, with “The data shown were normalized to the vehicle control. Results represent the mean±SD of triplicate determinations.” left out
as §4

Another experiment has as its system CD3+ CD4+ Sezary cells. Briefly: Hoechst 33342 apoptosis assay, Sezary cells. The conditions noted are these: 10 μM rolipram or 1 μM hydrocortisone; one patient. The experiment is classed as cell-based, human. As for the experimental part:
Magnetic bead purified peripheral blood T cells or leukemic cells from patients with B-CLL or Sezary syndrome were cultured in media alone or with a dose titration of hydrocortisone (solid line), followed by assessment for apoptosis by Hoechst 33342 FACS analysis at 48 hours. Using the same experimental conditions, the effect of addition of 10 μM rolipram (thick dashed line) or 10 μM rolipram and 40 μM forskolin (dotted line) was also assessed. The SEM of triplicate samples is shown; where not visible, the SEM was less than 1.0%.
as §2, §3

The next experiment deals with PDE4. The following applies: cited from earlier work.

For the compound `CCCC(=O)Nc1ncnc2c1ncn2[C@@H]1O[C@@H]2COP(=O)(O)O[C@H]2[C@H]1OC(=O)CCC` [dbcAMP, dibutyryl cAMP], the “apoptotic effect combined with 1 μM hydrocortisone” value in [1] (dexamethasone-sensitive CCRF-CEM cells, dbcAMP dose response) is recorded as “marked synergy”; in experiment [2], “marked synergy”.

`Nc1ncnc2c1nc(Br)n2C1OC2COP(O)(=S)OC2C1O` (centres unmarked) [Rp-8Br-cAMPS, (Rp)-8-Br-cAMPS]: the “reduction of hydrocortisone-induced transactivation” value in experiment [3] turned out to be 83%. For the same compound, the “inhibition of hydrocortisone-induced apoptosis” value with B-CLL cells [4] was determined as 86±14%.

One may read the IC50 as the point on the concentration scale where inhibition reaches its midpoint. On to `CCOC(=O)C1=C[C@]2(CC)CCCN3CCc4c(n1c1ccccc41)[C@@H]32` [vinpocetine], for which, on PDE1 enzymes, the IC50 was 21000 nM.

On to `CN(C(=O)CCCOc1ccc2[nH]c(=O)ccc2c1)C1CCCCC1` [cilostamide], for which the “augmentation of hydrocortisone-induced apoptosis” value with B-CLL cells [5] (five B-CLL patients) is listed as “nor augmented hydrocortisone-induced apoptosis”. Also, the “induction of apoptosis by itself” value in the experiment on B-CLL cells [5] (10 μM, five B-CLL patients) was “neither induced apoptosis by itself”.

Turning to `C=C[C@@]1(C)CC(=O)[C@@H]2[C@@]3(C)CCCC(C)(C)[C@@H]3[C@H](O)[C@H](OC(C)=O)[C@@]2(C)O1` [1,9 dideoxyforskolin], the “augmentation of glucocorticoid sensitivity” value with CCRF-CEM cells is on record as “failed to augment glucocorticoid sensitivity”.

Take `C[C@]12CCC(=O)C=C1CC[C@@H]1[C@@H]2[C@@H](O)C[C@@]2(C)[C@H]1CC[C@]2(O)C(=O)CO` [hydrocortisone]: the “apoptotic effect used separately on Sezary leukemic cells” value with CD3+ CD4+ Sezary cells was “little effect”. Moreover, the “apoptosis by Hoechst 33342 analysis” value was 19% in the experiment on B-CLL cells [5] (B-CLL patient #1, No Rx 10); 16% in the experiment with B-CLL cells [5] (B-CLL patient #2, No Rx 11); 41% in the experiment with B-CLL cells [5] (B-CLL patient #3, No Rx 13); 42% in the experiment on B-CLL cells [5] (B-CLL patient #4, No Rx 23); 43% in the experiment with B-CLL cells [5] (B-CLL patient #5, No Rx 25); 33% in the experiment on B-CLL cells [5] (B-CLL patient #6, No Rx 27). The “apoptosis by Hoechst 33342 analysis” value amounted to 47% in the experiment with B-CLL cells [5] (B-CLL patient #7, No Rx 31); 60% in the experiment with B-CLL cells [5] (B-CLL patient #8, No Rx 33); 71% in the experiment with B-CLL cells [5] (B-CLL patient #9, No Rx 35); 75% in the experiment with B-CLL cells [5] (B-CLL patient #10, No Rx 44); 73% in the experiment on B-CLL cells [5] (B-CLL patient #11, No Rx 61).

In the case of `CCCCOc1cc(CC2CNC(=O)N2)ccc1OC` (centres unmarked) [RO20-1724, 4-(3-Butoxy-4-methoxybenzyl)-2-imidazolidinone], the “augmentation of hydrocortisone-induced apoptosis” value in the experiment on B-CLL cells [5] (five B-CLL patients) is “augmented hydrocortisone-induced apoptosis”. Besides, the IC50 in the experiment on PDE4 is 2000 nM.

On to `C[C@@H]1C[C@H]2[C@@H]3CCC4=CC(=O)C=C[C@]4(C)[C@@]3(F)[C@@H](O)C[C@]2(C)[C@@]1(O)C(=O)CO` [dexamethasone], for which, in experiment [1] (Homo sapiens, CEM-S2 subclone, read-out: IC50, inhibition of survival), the IC50 came out at 7 nM.
